For this test, the system named is CD8 T cells transduced with CAR Construct 1. Put plainly: Tcm phenotype skewing of CAR-T cells (CD62L, CCR7, CD27 surface expression). As to conditions: flow cytometry day 8. Format: cell-based, human. On the procedure:
Culturing cells in large-scale for phenotypic and exhaustion marker evaluation. Isolated CD8 T cells were activated in bulk on day 0 using anti-CD3/anti-CD28 beads in T cell media supplemented with IL-2. On day 1, cells were transduced with the CAR Construct and cell density was adjusted to 0.5×10^6/ml and 10^6 cells were seeded into 12-well plates in the presence of vehicle, TWS119, or DCC-2036. On day 4, cells were transferred into 6-well plates and 2 ml of T cell media was added to each well. On day 6 another 2 ml of media was added to each well. On day 8, CAR T cells were analyzed on a flow cytometer for surface expression of phenotypic markers (CD62L, CCR7, and CD27) and exhaustion markers (PD-1 and Tim-3).
To determine the effect of compound treatment on skewing towards a central memory phenotype, isolated CD8 T cells were activated in bulk on day 0 using anti-CD3/anti-CD28 beads in T cell media supplemented with IL-2. On day 1, cells were transduced with the CAR Construct 1 shown in FIG. 2 and cell density was adjusted to 0.5×10^6/ml and 10^6 cells were seeded into 12 well plates in the presence of vehicle (DMSO), TWS119 or DCC-2036 at the same concentrations. On day 4, cells were transferred into 6-well plates and 2 ml of media was added to each well. On day 6 another 2 ml of media was added to each well. On day 8, cells were analyzed on a flow cytometer for cell surface expression of CD27.
The expression of CD27 observed with vehicle treatment was defined as an MFI (mean fluorescence intensity) of 1 and the relative MFI of cells treated with compound was calculated.

Turning to `CNC(=O)c1cc(Oc2ccc(NC(=O)Nc3cc(C(C)(C)C)nn3-c3ccc4ncccc4c3)c(F)c2)ccn1` [DCC-2036, Rebastinib], the “increase in the frequency of CAR-T cells expressing both CD62L and CCR7” value (relative to vehicle (DMSO), FIG. 4A) is given as 2.3 fold. Besides, the “increase in the expression of the differentiation marker CD27 (relative MFI)” value (relative to vehicle (MFI defined as 1), FIG. 4B) was determined as 2.2 fold.

Values taken from patent US11932870B2, “Compositions and methods for immune cell modulation in adoptive immunotherapies” (Fate Therapeutics, Inc., priority 2016, dated 2024).
